# Laboratory results reported in patent US20130244875A1, “METHODS AND COMPOSITIONS FOR IMPROVING PLANT HEALTH” (priority 2006, published 2013).
# Assays:
# Type in all cases: in vivo
# [1] = test system: PR-2, i.e., β-1,3-glucanase; experiment: Induction of PR2 (northern blot) in DMO soybean sprayed with dicamba or DCSA; conditions: two transgenic soybean lines; 0.25, 0.5 and 1 lb/Acre; 24 hrs after treatment; no induction in untreated or water only
# Description: A 14 hour minimum photoperiod was provided with supplemental light at about 600 μE (micro-Einsteins) as needed. Trials were established in a randomized block design randomized by rate with 4 to 6 replications of each treatment.
# All herbicide applications were made with the track sprayer using a Teejet® 9501E flat fan nozzle (Spraying Systems Co, Wheaton, Ill.) with air pressure set at a minimum of 24 psi (pounds per square inch), or 165 kpa (kilopascals)). The spray nozzle was kept at a height of about 16 inches above the top of plant material for spraying. The spray volume was 10 gallons per acre or 93 liters per hectare. Applications were made when plants had reached V-3 stage.
# Events carrying a DMO transgene in their genome were grown and treated with dicamba (Clarity®, BASF) at 1 lb/Acre at Post-V3 stage. Leaf samples were harvested after 0, 3, 8, 24, 48, 72 hrs after treatment (HAT) and frozen for further analysis. In another experiment, DMO-containing plants were sprayed with either dicamba or DCSA at 0.25, 0.5 and 1 lb/Acre rate and tissue samples were collected 24 HAT. RNA was extracted and analyzed by northern blot analysis using PR-2, i.e., β-1,3-glucanase as a probe. PR-2 is a pathogenesis-related protein known to degrade […] and thus provide protection against fungal pathogens (U.S. Pat. No. 5,670,706 and Uknes et al., 1992).
# soybean seeds = experiment: Soybean seed germination in DCSA solution; set-up: key: 1—low; 2—moderate; 3—high; 3+—exceptionally high; conditions: N=8
# Description: Rapid seed germination is an important agronomic trait that reduces crop losses due to seed rot especially under cool wet conditions. Soybeans seeds of three varieties were germinated in a solution of 1, 10, or 100 μM DCSA or water at normal temperature (22° C.) or cool temperature (15° C.) and rated for seed germination at 1DAT (1 day after treatment) and 2DAT (2 days after treatment) at 22° C. or 4DAT (days after treatment) at 15° C. The germination rate was scored as 1—low, 2—moderate, 3—high for each treatment, 3+—exceptionally high, N=8.
# soybean plants [2] = experiment: Copper injury on soybeans; conditions: DCSA 0.5 lb/A as tank mix or pretreatment 1 hr or 24 hr before 1000 ppm copper; reduced from 45%
# From the text: Plants are sensitive to heavy metal toxicity. Heavy metals are present in the environment or sometimes applied to plants for pest control. Symptoms of plant injury following treatment with a heavy metal compound, for example, a compound containing copper, are necrotic leaf spotting and flecking with more severe injury resulting in larger reddish brown spots, […] necrosis and/or necrotic puckered leaves.
# soybean plants [3] = experiment: Ozone tolerance of soybeans; conditions: 0.5 lbs/A DCSA about 72 hours before, 10 hours
# Description: Many plants are sensitive to ozone (O3), soybeans are particularly sensitive to ozone damage and show leaf flecking and chlorosis. Ozone can be produced in the atmosphere by a photochemical process in air polluted environments. Soybean production can be affected by ozone when soybeans are cultivated near urban areas or air pollution from urban areas is distributed to agricultural areas where soybeans are grown. An experiment was conducted to determine if DCSA treatment of soybean plants will provide tolerance to oxidative stress caused by ozone. Soybeans were treated with 0.5 lbs/A DCSA approximately 72 hours before exposure to ozone. Controls had no DCSA treatment. Four plants were treated with ozone in one 72 quart sterilite container with a clear plexiglass lid. Ozone was generated at 2 concentrations in the container with the plants at a low rate (2.8 ppm, parts per million) or a high rate (770 ppm) and the plants exposed for 10 hours at these concentrations. Light levels at plant height were ˜400μ Einsteins m-2 s-1, enough to insure photosynthesis. Air in the container was mixed using a small fan to insure proper exposure. Plants were removed from the treatment container and placed in a growth chamber to observe symptom development.
# [4] = test system: wheat seed (spring wheat variety); experiment: Wheat seed germination in DCSA solution; set-up: key: 1—low; 2—moderate; 3—high; 3+—exceptionally high; conditions: 22° C., 2DAT, water 1
# Description: Wheat seed (spring wheat variety) was germinated in a solution of 0.1, 1, 10, 100, or 1000 μM DCSA or water at 22° C. and rated 2 DAT for germination using the same rating scale as used for soybean.
smiles,measurement,setting,value
"O=C(O)c1c(Cl)ccc(Cl)c1O [DCSA, 3,6-dichloro salicylic acid]",induction of PR2 at various rates,[1],induction of PR2
same,germination rating,"soybean seeds; soybean Variety 1, 1 μM DCSA, 1DAT, 22° C.",1
same,germination rating,"soybean seeds; soybean Variety 1, 1 μM DCSA, 2DAT, 22° C.",3
same,germination rating,"soybean seeds; soybean Variety 1, 1 μM DCSA, 4 DAT, 15° C.",1
same,germination rating,"soybean seeds; soybean Variety 1, 10 μM DCSA, 1DAT, 22° C.",1
same,germination rating,"soybean seeds; soybean Variety 1, 10 μM DCSA, 2DAT, 22° C.",3
same,germination rating,"soybean seeds; soybean Variety 1, 10 μM DCSA, 4 DAT, 15° C.",3
same,germination rating,"soybean seeds; soybean Variety 1, 100 μM DCSA, 1DAT, 22° C.",3
same,germination rating,"soybean seeds; soybean Variety 1, 100 μM DCSA, 2DAT, 22° C.",3+
same,germination rating,"soybean seeds; soybean Variety 1, 100 μM DCSA, 4 DAT, 15° C.",3
same,germination rating,"soybean seeds; soybean Variety 2, 1 μM DCSA, 1DAT, 22° C.",2
same,germination rating,"soybean seeds; soybean Variety 2, 1 μM DCSA, 2DAT, 22° C.",3
same,germination rating,"soybean seeds; soybean Variety 2, 1 μM DCSA, 4 DAT, 15° C.",3
same,germination rating,"soybean seeds; soybean Variety 2, 10 μM DCSA, 1DAT, 22° C.",2
same,germination rating,"soybean seeds; soybean Variety 2, 10 μM DCSA, 2DAT, 22° C.",3
same,germination rating,"soybean seeds; soybean Variety 2, 10 μM DCSA, 4 DAT, 15° C.",3
same,germination rating,"soybean seeds; soybean Variety 2, 100 μM DCSA, 1DAT, 22° C.",3
same,germination rating,"soybean seeds; soybean Variety 2, 100 μM DCSA, 2DAT, 22° C.",3+
same,germination rating,"soybean seeds; soybean Variety 2, 100 μM DCSA, 4 DAT, 15° C.",3
same,germination rating,"soybean seeds; soybean Variety 3, 1 μM DCSA, 1DAT, 22° C.",2
same,germination rating,"soybean seeds; soybean Variety 3, 1 μM DCSA, 2DAT, 22° C.",2
same,germination rating,"soybean seeds; soybean Variety 3, 1 μM DCSA, 4 DAT, 15° C.",3
same,germination rating,"soybean seeds; soybean Variety 3, 10 μM DCSA, 1DAT, 22° C.",2
same,germination rating,"soybean seeds; soybean Variety 3, 10 μM DCSA, 2DAT, 22° C.",3
same,germination rating,"soybean seeds; soybean Variety 3, 10 μM DCSA, 4 DAT, 15° C.",2
same,germination rating,"soybean seeds; soybean Variety 3, 100 μM DCSA, 1DAT, 22° C.",1
same,germination rating,"soybean seeds; soybean Variety 3, 100 μM DCSA, 2DAT, 22° C.",3
same,germination rating,"soybean seeds; soybean Variety 3, 100 μM DCSA, 4 DAT, 15° C.",1
same,Soybean injury levels,soybean plants [2],24-33%
same,ozone damage symptoms,"soybean plants [3]; high ozone rate 770 ppm, control lower leaves visibly damaged",did not show any lower leaf damage
same,ozone damage symptoms,"soybean plants [3]; low ozone rate 2.8 ppm, controls also without symptoms",no symptoms were observed
same,germination rating,[4]; 0.1 μM DCSA,1
same,germination rating,[4]; 1 μM DCSA,1
same,germination rating,[4]; 10 μM DCSA,3
same,germination rating,[4]; 100 μM DCSA,2
same,germination rating,[4]; 1000 μM DCSA,3
